Reference: US6432968B1 (Aventis Pharma Deutschland GmbH, priority 1994, dated 2002)

Test system: Human peripheral blood mononuclear cells (PBMC)
Assay: Mixed human lymphocyte reaction (MLR) assay
Type: cell-based
Conditions: immunosuppressant alone, 0.5 nM, read-out: inhibition of lymphocyte proliferation
Method: coculture of lymphocytes of different […] (MLR=mixed lymphocyte reaction): lymphocytes containing different antigens of the HLA-DR type (=allogens) activate each other non-specifically.
100 μl of those PBMC are mixed with 100 μl of irradiated PMBC (1×10^6 cells/ml) in a well of a microtiter plate. The test substances, alone or in combination, are likewise added to the PBMC. The plates are incubated for 5 days at 37° C. in a moist atmosphere which contains 5% CO2. Then 1 μCi of ^3H-thymidine is added to the cells and they are incubated under the abovementioned conditions for a further 8 hours. The cells are then collected on glass fiber filters and the incorporated radioactivity is determined using a beta counter.
Inhibition is given in percent and referred to uninhibited controls (which correspond to 0%).
Inhibition is given in percent and referred to uninhibited controls (which correspond to 0%)

Compared with C=CC[C@@H]1/C=C(\C)C[C@H](C)C[C@H](OC)[C@H]2O[C@@](O)(C(=O)C(=O)N3CCCC[C@H]3C(=O)O[C@H](/C(C)=C/[C@@H]3CC[C@@H](O)[C@H](OC)C3)[C@H](C)[C@@H](O)CC1=O)[C@H](C)C[C@@H]2OC [FK 506, Tacrolimus, reference compound], CO[C@H]1C[C@@H]2CC[C@@H](C)[C@@](O)(O2)C(=O)C(=O)N2CCCC[C@H]2C(=O)O[C@H]([C@H](C)C[C@@H]2CC[C@@H](O)[C@H](OC)C2)CC(=O)[C@H](C)/C=C(\C)[C@@H](O)[C@@H](OC)C(=O)[C@H](C)C[C@H](C)/C=C/C=C/C=C/1C [RPM, rapamycin, reference compound] is higher in inhibition at 0.0005 µM: 30% for the first, 35% for the second.

Same assay, conditions: read-out: % inhibition of proliferation (100 μM), 100 μM, referred to uninhibited controls (0%)

First: CCCCCCn1c(=O)c2c(ncn2C)n(C)c1=O [Compound 14, 1-hexyl-3,7-dimethylxanthine]
Second: CCCn1cnc2c1c(=O)n(CCCCC(C)O)c(=O)n2C (centres unmarked) [Compound 3, 1-(5-hydroxyhexyl)-3-methyl-7-propyl-xanthine]
The inhibition at 100 µM of the first is higher: 85% for the first, 83% for the second.

Compared with Cn1c(=O)n(CCCCC(C)(C)O)c(=O)c2c1ncn2CC1CC1 [Compound 12, 7-cyclopropylmethyl-1-(5-hydroxy-5-methylhexyl)-3-methylxanthine], CCOCn1cnc2c1c(=O)n(CCCCC(C)(C)O)c(=O)n2C [Compound 9, 7-ethoxymethyl-1-(5-hydroxy-5-methylhexyl)-3-methylxanthine] is lower in inhibition at 100 µM: 85% for the first, 61% for the second.

First: CCCCn1cnc2c1c(=O)n(CCCCCC(C)(C)O)c(=O)n2CC [Compound 11, 7-butyl-3-ethyl-1-(6-hydroxy-6-methylheptyl)-xanthine]
Second: CCCCn1cnc2c1c(=O)n(CCCCC(C)(C)O)c(=O)n2C [Compound 8, 1-(5-hydroxy-5-methylhexyl)-3-methyl-7-butylxanthine]
The inhibition at 100 µM of the first is higher: 94% for the first, 91% for the second.
